Laboratory results published in US20150193597A1, “PHARMACEUTICAL PRODUCT AND COMMUNICATION TOOL” (priority 2012, published 2015).

How the values were obtained:
[1] = Study 3: Lyrica combination product in generalized anxiety disorder (GAD), perceived symptoms, side effects, quality of life, adherence; settings: Patient 3 (only PP); for Anxiety Daytime / Anxiety Evening/Night / Fatigue / Muscle tension Daytime / Muscle tension Evening/Night: average VAS 0-10; for Dizziness / Dry month / Nausea: frequency of Yes answers; for Quality of Life: average VAS 0-10, 10 = Extremely good
Method: Three patients participated in the study, where two of them were given the combination product, A+B, and the third was given the PP, A. All three patients were using an evaluation tool in order to capture the continuous data concerning their current health situation. Prior to entering the study none of the patients had used either the PP or the CPP.
Length of study: 2 months.
The two patients using the combination product were evaluated against the one patient using only the PP and being treated according to ordinary health care in Sweden.
Due to the specific and profound study objectives, detailed outcome and behavior during the study period from the patients were evaluated against each other. The measurements of the patient outcomes were evaluated for each patient in different time phases during the treatment period.
In order to measure the appropriate patient outcome, the patients were continuously followed-up. […] The used QFM for the patients in the intervention group, patient 1 and 2: • 1. Set of questions. • 2. Set of functions generating individual and patient specific feedback information. • 3. Feedback based upon the individual patient specific feedback information.
The used set of questions for the patient in the control group, patient 3: • 1. Set of questions similar to the intervention group in order to capture patient reported outcome data • 2. No set of functions. • 3. No feedback information or feedback.
The measured variables (see table 19) were symptom and side effect levels which were perceived estimates by each patient at every measure point. The change in levels of symptoms and side effects between different measured times were used for comparisons. Symptoms and side effects are many times closely related in GAD. In this study anxiety, fatigue, and muscle tension were defined as symptoms while dizziness, nausea, and dry mouth were considered as side effects. This study focused on the overall clinical effect and patient safety aspects therefore it was not crucial to the results if a measured variable could have been defined differently.

[2] = test period when patient only was taking Zoloft (two months)
Text: Test objectives; improve cardiovascular and diabetes symptoms through an increased well-being from improved adherence to Zoloft, initiating primarily an improved level of physical activity • b. Follow-up variables: Weight and HbA1c • c. Period of time using the combination product: Five months. • d. Period of time using only the pharmaceutical, i.e. no combination product, prior to the period of using the combination product: Two months • e. Period of time using only the software application, after the period of using the combination product: Two weeks
The individual goal was set-up by the patient by answering the following question: “Give your own personal goal for the physical activity in number of minutes for one week”. • The patient was then asked to continuously answer a question like the following: “I have been exercising the following number of minutes today: [number]”. • Weight/BMI: • The patient was asked to answer a question regarding his/her actual weight. • Depression and Anxiety, respectively: • The patient was asked to register the actual level of perceived depression respectively actual level of perceived anxiety at predefined occasions every second day. It was also possible for the patient to answer the question when he/she wanted. […]

[3] = test period when patient was only taking Metformin (two months)
Method: Follow-up variables: HbA1c • c. Period of time using the combination product: Three months. • d. Period of time using only the pharmaceutical, i.e. no combination product, prior to the period of using the combination product: Two months
Metformin was the following: • Adherence to Metformin: • The patient was asked to answer a question whether or not he/she had been adherent to Metformin, and which dose the patient took; “I have taken my Metformin today with the daily dose of 500 mg/1000 mg/1500 mg/2000 mg/2500 mg or 3000 mg”. • Physical activity: • The patient was asked to continuously answer a question like the following: “I have been exercising the following number of minutes today: [number]”. • Weight/BMI: • The patient was asked to answer a question regarding his/her actual weight. • Blood glucose: • The patient was asked to register his/her measured blood glucose, when he/she had measured it. It was possible for the patient to change or update already registered answers. • HbA1c: • The patient was asked to register his/her HbA1c after it had been measured at a clinic. • A possible adverse event for Metformin: • “Have you experienced unexpected loss of weight, severe nausea or vomiting (malaise), uncontrolled sudden pain when breathing or abdominal? […] Extremely much versus Nothing at all” according to a VAS structure

SMILES: CC(C)C[C@H](CN)CC(=O)O [A, pregabalin]
- Anxiety Daytime ([1]; 1st phase): 3.5
- Anxiety Evening/Night ([1]; 1st phase): 2.8
- Fatigue ([1]; 1st phase): 5.4
- Muscle tension Daytime ([1]; 1st phase): 6.3
- Muscle tension Evening/Night ([1]; 1st phase): 3.9
- Dizziness ([1]; 1st phase): 13%
- Dry month ([1]; 1st phase): 0%
- Nausea ([1]; 1st phase): 38%
- Anxiety Daytime ([1]; 2nd phase): 3.0
- Anxiety Evening/Night ([1]; 2nd phase): 2.9
- Fatigue ([1]; 2nd phase): 5.0
- Muscle tension Daytime ([1]; 2nd phase): 7.8
- Muscle tension Evening/Night ([1]; 2nd phase): 7.4
- Dizziness ([1]; 2nd phase): 0%
- Dry month ([1]; 2nd phase): 0%
- Nausea ([1]; 2nd phase): 11%
- Anxiety Daytime, Change ([1]; 2nd vs 1st phase): −0.5
- Anxiety Evening/Night, Change ([1]; 2nd vs 1st phase): 0.1
- Dizziness, Change ([1]; 2nd vs 1st phase): −13 p.p.
- Dry month, Change ([1]; 2nd vs 1st phase): 0 p.p.
- Fatigue, Change ([1]; 2nd vs 1st phase): −0.4
- Muscle tension Daytime, Change ([1]; 2nd vs 1st phase): 1.5
- Muscle tension Evening/Night, Change ([1]; 2nd vs 1st phase): 5.5
- Nausea, Change ([1]; 2nd vs 1st phase): −27 p.p.
- Anxiety Daytime ([1]; 3rd phase): 1.9
- Anxiety Evening/Night ([1]; 3rd phase): 1.8
- Fatigue ([1]; 3rd phase): 5.1
- Muscle tension Daytime ([1]; 3rd phase): 7.1
- Muscle tension Evening/Night ([1]; 3rd phase): 7.2
- Dizziness ([1]; 3rd phase): 0%
- Dry month ([1]; 3rd phase): 0%
- Nausea ([1]; 3rd phase): 0%
- Anxiety Daytime, Change ([1]; 3rd vs 2nd phase): −1.1
- Anxiety Evening/Night, Change ([1]; 3rd vs 2nd phase): −1.1
- Dizziness, Change ([1]; 3rd vs 2nd phase): 0 p.p.
- Dry month, Change ([1]; 3rd vs 2nd phase): 0 p.p.
- Fatigue, Change ([1]; 3rd vs 2nd phase): 0.1
- Muscle tension Daytime, Change ([1]; 3rd vs 2nd phase): −0.7
- Muscle tension Evening/Night, Change ([1]; 3rd vs 2nd phase): −0.3
- Nausea, Change ([1]; 3rd vs 2nd phase): −11 p.p.
- Anxiety Daytime ([1]; End period): 2.0
- Anxiety Evening/Night ([1]; End period): 2.5
- Fatigue ([1]; End period): 4.8
- Muscle tension Daytime ([1]; End period): 7.3
- Muscle tension Evening/Night ([1]; End period): 7.4
- Quality of Life ([1]; End period): 2.5
- Dizziness ([1]; End period): 0%
- Dry month ([1]; End period): 0%
- Nausea ([1]; End period): 0%
- Anxiety Daytime, Change ([1]; End vs Start period): −1.8
- Anxiety Evening/Night, Change ([1]; End vs Start period): 0.1
- Dizziness, Change ([1]; End vs Start period): −13 p.p.
- Dry month, Change ([1]; End vs Start period): 0 p.p.
- Fatigue, Change ([1]; End vs Start period): −0.8
- Muscle tension Daytime, Change ([1]; End vs Start period): 1.4
- Muscle tension Evening/Night, Change ([1]; End vs Start period): 4.0
- Nausea, Change ([1]; End vs Start period): −38 p.p.
- Quality of Life, Change ([1]; End vs Start period): 0.5
- Anxiety Daytime ([1]; Start period): 3.8
- Anxiety Evening/Night ([1]; Start period): 2.4
- Fatigue ([1]; Start period): 5.6
- Muscle tension Daytime ([1]; Start period): 5.9
- Muscle tension Evening/Night ([1]; Start period): 3.4
- Quality of Life ([1]; Start period): 2.0
- Dizziness ([1]; Start period): 13%
- Dry month ([1]; Start period): 0%
- Nausea ([1]; Start period): 38%

SMILES: CN[C@H]1CC[C@@H](c2ccc(Cl)c(Cl)c2)c2ccccc21 [Zoloft, Sertralin]
- HbA1c course [2]: remained stable or slightly increased
- weight gain [2]: 1-2%

SMILES: CN(C)C(=N)N=C(N)N [Metformin]
- increase of HbA1c [3]: 7%
